Tested on: MCH receptors
Experiment: MCH receptor activity class (method not given)
Settings: activity class 1-3: percent of control at 10^-7 M or IC50

Structure (SMILES) | class
CN(C)c1nc(N[C@H]2CC[C@@H](CNC(=O)OCc3ccccc3Cl)CC2)nc2c1CCCC2 [compound 1616] | 3 (Class 3 The value of percent of control at 10^−7 M was more than 60% or the value of IC50 was more than 200 nM.)
CN(C)c1nc(N[C@H]2CC[C@@H](CNC(=O)OCC3c4ccccc4-c4ccccc43)CC2)nc2c1CCCC2 [compound 1617] | 3 (Class 3 The value of percent of control at 10^−7 M was more than 60% or the value of IC50 was more than 200 nM.)
CN(C)c1nc(N[C@H]2CC[C@@H](CNC(=O)OCC(Cl)(Cl)Cl)CC2)nc2c1CCCC2 [compound 1618] | 3 (Class 3 The value of percent of control at 10^−7 M was more than 60% or the value of IC50 was more than 200 nM.)
CN(C)c1ccnc(N[C@H]2CC[C@@H](NC(=O)OCCOCc3ccccc3)CC2)n1 [compound 1619] | 3 (Class 3 The value of percent of control at 10^−7 M was more than 60% or the value of IC50 was more than 200 nM.)
CN(C)c1ccnc(N[C@H]2CC[C@@H](NC(=O)OCC(C)(C)C)CC2)n1 [compound 1620] | 3 (Class 3 The value of percent of control at 10^−7 M was more than 60% or the value of IC50 was more than 200 nM.)
COc1cc(COC(=O)NC2CCC(Nc3nccc(N(C)C)n3)CC2)c([N+](=O)[O-])cc1OC (centres unmarked) [compound 1621, [4-(4-Dimethylamino-pyrimidin-2-ylamino)-cyclohexyl]-carbamid acid 4,5-dimethoxy-2-nitro-benzyl ester] | 3 (Class 3 The value of percent of control at 10^−7 M was more than 60% or the value of IC50 was more than 200 nM.)
CN(C)c1ccnc(N[C@H]2CC[C@@H](NC(=O)Oc3cccc(C(F)(F)F)c3)CC2)n1 [compound 1622] | 3 (Class 3 The value of percent of control at 10^−7 M was more than 60% or the value of IC50 was more than 200 nM.)
CN(C)c1ccnc(N[C@H]2CC[C@@H](NC(=O)Oc3ccc(Br)cc3)CC2)n1 [compound 1623] | 3 (Class 3 The value of percent of control at 10^−7 M was more than 60% or the value of IC50 was more than 200 nM.)
COc1ccccc1OC(=O)N[C@H]1CC[C@@H](Nc2nccc(N(C)C)n2)CC1 [compound 1624] | 3 (Class 3 The value of percent of control at 10^−7 M was more than 60% or the value of IC50 was more than 200 nM.)
COCCOC(=O)N[C@H]1CC[C@@H](Nc2nccc(N(C)C)n2)CC1 [compound 1625] | 3 (Class 3 The value of percent of control at 10^−7 M was more than 60% or the value of IC50 was more than 200 nM.)
CCCCCCCCOC(=O)N[C@H]1CC[C@@H](Nc2nccc(N(C)C)n2)CC1 [compound 1626] | 3 (Class 3 The value of percent of control at 10^−7 M was more than 60% or the value of IC50 was more than 200 nM.)
CCOC(=O)N[C@H]1CC[C@@H](Nc2nccc(N(C)C)n2)CC1 [compound 1627] | 3 (Class 3 The value of percent of control at 10^−7 M was more than 60% or the value of IC50 was more than 200 nM.)
CN(C)c1ccnc(N[C@H]2CC[C@@H](NC(=O)OCc3ccc([N+](=O)[O-])cc3)CC2)n1 [compound 1628] | 3 (Class 3 The value of percent of control at 10^−7 M was more than 60% or the value of IC50 was more than 200 nM.)
CN(C)c1ccnc(N[C@H]2CC[C@@H](NC(=O)Oc3ccc4ccccc4c3)CC2)n1 [compound 1629] | 3 (Class 3 The value of percent of control at 10^−7 M was more than 60% or the value of IC50 was more than 200 nM.)
C=CCOC(=O)N[C@H]1CC[C@@H](Nc2nccc(N(C)C)n2)CC1 [compound 1630] | 3 (Class 3 The value of percent of control at 10^−7 M was more than 60% or the value of IC50 was more than 200 nM.)
CN(C)c1ccnc(N[C@H]2CC[C@@H](NC(=O)OCc3ccccc3)CC2)n1 [compound 1631] | 3 (Class 3 The value of percent of control at 10^−7 M was more than 60% or the value of IC50 was more than 200 nM.)
CN(C)c1ccnc(N[C@H]2CC[C@@H](NC(=O)Oc3ccccc3)CC2)n1 [compound 1632] | 3 (Class 3 The value of percent of control at 10^−7 M was more than 60% or the value of IC50 was more than 200 nM.)
CC(C)[C@@H]1CC[C@@H](C)CC1OC(=O)N[C@H]1CC[C@@H](Nc2nccc(N(C)C)n2)CC1 (some centres unmarked) [compound 1633] | 3 (Class 3 The value of percent of control at 10^−7 M was more than 60% or the value of IC50 was more than 200 nM.)
Cc1ccc(OC(=O)N[C@H]2CC[C@@H](Nc3nccc(N(C)C)n3)CC2)cc1 [compound 1634] | 3 (Class 3 The value of percent of control at 10^−7 M was more than 60% or the value of IC50 was more than 200 nM.)
COC(=O)N[C@H]1CC[C@@H](Nc2nccc(N(C)C)n2)CC1 [compound 1635] | 3 (Class 3 The value of percent of control at 10^−7 M was more than 60% or the value of IC50 was more than 200 nM.)
CN(C)c1ccnc(N[C@H]2CC[C@@H](NC(=O)OCc3ccccc3Cl)CC2)n1 [compound 1636] | 3 (Class 3 The value of percent of control at 10^−7 M was more than 60% or the value of IC50 was more than 200 nM.)
CN(C)c1ccnc(N[C@H]2CC[C@@H](NC(=O)OCC3c4ccccc4-c4ccccc43)CC2)n1 [compound 1637] | 3 (Class 3 The value of percent of control at 10^−7 M was more than 60% or the value of IC50 was more than 200 nM.)

Structure (SMILES) | class
CN(C)c1ccnc(N[C@H]2CC[C@@H](NC(=O)OCC(Cl)(Cl)Cl)CC2)n1 [compound 1638] | 3 (Class 3 The value of percent of control at 10^−7 M was more than 60% or the value of IC50 was more than 200 nM.)
CN(C)c1ccnc(N[C@H]2CC[C@@H](CNC(=O)OCCOCc3ccccc3)CC2)n1 [compound 1639] | 3 (Class 3 The value of percent of control at 10^−7 M was more than 60% or the value of IC50 was more than 200 nM.)
CN(C)c1ccnc(N[C@H]2CC[C@@H](CNC(=O)OCC(C)(C)C)CC2)n1 [compound 1640] | 3 (Class 3 The value of percent of control at 10^−7 M was more than 60% or the value of IC50 was more than 200 nM.)
COc1cc(COC(=O)NC[C@H]2CC[C@@H](Nc3nccc(N(C)C)n3)CC2)c([N+](=O)[O-])cc1OC [compound 1641] | 3 (Class 3 The value of percent of control at 10^−7 M was more than 60% or the value of IC50 was more than 200 nM.)
CN(C)c1ccnc(N[C@H]2CC[C@@H](CNC(=O)Oc3cccc(C(F)(F)F)c3)CC2)n1 [compound 1642] | 3 (Class 3 The value of percent of control at 10^−7 M was more than 60% or the value of IC50 was more than 200 nM.)
CN(C)c1ccnc(N[C@H]2CC[C@@H](CNC(=O)Oc3ccc(Br)cc3)CC2)n1 [compound 1643] | 3 (Class 3 The value of percent of control at 10^−7 M was more than 60% or the value of IC50 was more than 200 nM.)
COc1ccccc1OC(=O)NC[C@H]1CC[C@@H](Nc2nccc(N(C)C)n2)CC1 [compound 1644] | 3 (Class 3 The value of percent of control at 10^−7 M was more than 60% or the value of IC50 was more than 200 nM.)
COCCOC(=O)NC[C@H]1CC[C@@H](Nc2nccc(N(C)C)n2)CC1 [compound 1645] | 3 (Class 3 The value of percent of control at 10^−7 M was more than 60% or the value of IC50 was more than 200 nM.)
CCCCCCCCOC(=O)NC[C@H]1CC[C@@H](Nc2nccc(N(C)C)n2)CC1 [compound 1646] | 3 (Class 3 The value of percent of control at 10^−7 M was more than 60% or the value of IC50 was more than 200 nM.)
CCOC(=O)NC[C@H]1CC[C@@H](Nc2nccc(N(C)C)n2)CC1 [compound 1647] | 3 (Class 3 The value of percent of control at 10^−7 M was more than 60% or the value of IC50 was more than 200 nM.)
CN(C)c1ccnc(NC2CCC(CNC(=O)OCc3ccc([N+](=O)[O-])cc3)CC2)n1 (centres unmarked) [compound 1648] | 3 (Class 3 The value of percent of control at 10^−7 M was more than 60% or the value of IC50 was more than 200 nM.)
CN(C)c1ccnc(N[C@H]2CC[C@@H](CNC(=O)Oc3ccc4ccccc4c3)CC2)n1 [compound 1649] | 3 (Class 3 The value of percent of control at 10^−7 M was more than 60% or the value of IC50 was more than 200 nM.)
C=CCOC(=O)NC[C@H]1CC[C@@H](Nc2nccc(N(C)C)n2)CC1 [compound 1650] | 3 (Class 3 The value of percent of control at 10^−7 M was more than 60% or the value of IC50 was more than 200 nM.)
CN(C)c1ccnc(NC2CCC(CNC(=O)OCc3ccccc3)CC2)n1 (centres unmarked) [compound 1651] | 3 (Class 3 The value of percent of control at 10^−7 M was more than 60% or the value of IC50 was more than 200 nM.)
CN(C)c1ccnc(N[C@H]2CC[C@@H](CNC(=O)Oc3ccccc3)CC2)n1 [compound 1652] | 3 (Class 3 The value of percent of control at 10^−7 M was more than 60% or the value of IC50 was more than 200 nM.)
CC(C)[C@@H]1CC[C@@H](C)CC1OC(=O)NC[C@H]1CC[C@@H](Nc2nccc(N(C)C)n2)CC1 (some centres unmarked) [compound 1653] | 3 (Class 3 The value of percent of control at 10^−7 M was more than 60% or the value of IC50 was more than 200 nM.)
Cc1ccc(OC(=O)NC[C@H]2CC[C@@H](Nc3nccc(N(C)C)n3)CC2)cc1 [compound 1654] | 3 (Class 3 The value of percent of control at 10^−7 M was more than 60% or the value of IC50 was more than 200 nM.)
COC(=O)NC[C@H]1CC[C@@H](Nc2nccc(N(C)C)n2)CC1 [compound 1655] | 3 (Class 3 The value of percent of control at 10^−7 M was more than 60% or the value of IC50 was more than 200 nM.)
CN(C)c1ccnc(N[C@H]2CC[C@@H](CNC(=O)OCc3ccccc3Cl)CC2)n1 [compound 1656] | 3 (Class 3 The value of percent of control at 10^−7 M was more than 60% or the value of IC50 was more than 200 nM.)
CN(C)c1ccnc(N[C@H]2CC[C@@H](CNC(=O)OCC3c4ccccc4-c4ccccc43)CC2)n1 [compound 1657] | 3 (Class 3 The value of percent of control at 10^−7 M was more than 60% or the value of IC50 was more than 200 nM.)
CN(C)c1ccnc(N[C@H]2CC[C@@H](CNC(=O)OCC(Cl)(Cl)Cl)CC2)n1 [compound 1658] | 3 (Class 3 The value of percent of control at 10^−7 M was more than 60% or the value of IC50 was more than 200 nM.)
CN(C)c1nc(N[C@H]2CC[C@@H](NC(=O)Nc3ccccc3Cl)CC2)nc2c1CCCC2 [compound 1659] | 3 (Class 3 The value of percent of control at 10^−7 M was more than 60% or the value of IC50 was more than 200 nM.)

From US20050197350A1, “Novel quinoline, tetrahydroquinazoline, and pyrimidine derivatives and methods of treatment related to the use thereof” (TAISHO PHARMACEUTICAL CO., LTD., priority 2003, published 2005)
